In ChEMBL document CHEMBL1201862, “PubChem BioAssay data set” (2004):
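Exposure lasted 48 hours, with cells grown in 96-well plates and compounds tested at five concentrations. At the GI50, growth is halved.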 Active and inactive are the calls of the source. Cut-off read from the data, not from the text of the source: active = GI50 up to about 1.1 µM and inactive = higher.

Assays:
Assay in all cases: NCI tumour cell line growth inhibition, 48 h
MDA-MB-435 = system: MDA-MB-435
T47D = system: T47D
SK-OV-3 = system: SK-OV-3
MDA-MB-231 = system: MDA-MB-231
OVCAR-4 = system: OVCAR-4
SN12C = system: SN12C
HCT-116 = system: HCT-116
NCI-H23 = system: NCI-H23
COLO 205 = system: COLO 205
NCI-H226 = system: NCI-H226
MCF7 = system: MCF7
OVCAR-5 = system: OVCAR-5
NCI/ADR-RES = system: NCI/ADR-RES
EKVX = system: EKVX
HOP-62 = system: HOP-62
RPMI-8226 = system: RPMI-8226
HOP-92 = system: HOP-92
NCI-H460 = system: NCI-H460
A498 = system: A498

Structure (SMILES)	GI50 (MDA-MB-435)	GI50 (T47D)	GI50 (SK-OV-3)	GI50 (MDA-MB-231)	GI50 (OVCAR-4)	GI50 (SN12C)	GI50 (HCT-116)	GI50 (NCI-H23)	GI50 (COLO 205)	GI50 (NCI-H226)	GI50 (MCF7)	GI50 (OVCAR-5)	GI50 (NCI/ADR-RES)	GI50 (EKVX)	GI50 (HOP-62)	GI50 (RPMI-8226)	GI50 (HOP-92)	GI50 (NCI-H460)	GI50 (A498)
O=C1NC(N2CCOCC2)=N/C1=C\c1ccco1	> 100 µM (inactive)	> 100 µM (inactive)	> 100 µM (inactive)	> 100 µM (inactive)	> 100 µM (inactive)	> 100 µM (inactive)	> 100 µM (inactive)	> 100 µM (inactive)	> 100 µM (inactive)	> 100 µM (inactive)	> 100 µM (inactive)	> 100 µM (inactive)	> 100 µM (inactive)	> 100 µM (inactive)	> 100 µM (inactive)	> 100 µM (inactive)	> 100 µM (inactive)		
O=C1NCN(c2ccccc2)C12CCN(CC1COc3ccccc3O1)CC2 (stereo not drawn) [SPIROXATRINE]	> 100 µM (inactive)	54 µM (inactive)	51.3 µM (inactive)	59.7 µM (inactive)	33.4 µM (inactive)	> 100 µM (inactive)	> 100 µM (inactive)	44.3 µM (inactive)	> 100 µM (inactive)	49.9 µM (inactive)	> 100 µM (inactive)	> 100 µM (inactive)	47.5 µM (inactive)	43.5 µM (inactive)	22.5 µM (inactive)	> 100 µM (inactive)		> 100 µM (inactive)	71.6 µM (inactive)
N#Cc1c(-c2ccccc2)[nH]c(=O)n(C2OC(CO)C(O)C(O)C2O)c1=O (stereo not drawn)	> 100 µM (inactive)	> 100 µM (inactive)	> 100 µM (inactive)	> 100 µM (inactive)	> 100 µM (inactive)	> 100 µM (inactive)	> 100 µM (inactive)	> 100 µM (inactive)	> 100 µM (inactive)		> 100 µM (inactive)	> 100 µM (inactive)	> 100 µM (inactive)	> 100 µM (inactive)	> 100 µM (inactive)	> 100 µM (inactive)	> 100 µM (inactive)	> 100 µM (inactive)	> 100 µM (inactive)
Nc1ncnc2c1ncn2C1C=CC(CP(=O)(O)O)C1 (stereo not drawn)	> 100 µM (inactive)	> 100 µM (inactive)	> 100 µM (inactive)	> 100 µM (inactive)	> 100 µM (inactive)	> 100 µM (inactive)	> 100 µM (inactive)	> 100 µM (inactive)	> 100 µM (inactive)	> 100 µM (inactive)	> 100 µM (inactive)	> 100 µM (inactive)	> 100 µM (inactive)	> 100 µM (inactive)	> 100 µM (inactive)	> 100 µM (inactive)		> 100 µM (inactive)	
CN(C)CCCNC(CC#N)CCC#N (stereo not drawn)	> 10 µM (inactive)	> 10 µM (inactive)	> 10 µM (inactive)	> 10 µM (inactive)	> 10 µM (inactive)	> 10 µM (inactive)	> 10 µM (inactive)	> 10 µM (inactive)	> 10 µM (inactive)	> 10 µM (inactive)	> 10 µM (inactive)	> 10 µM (inactive)	> 10 µM (inactive)	> 10 µM (inactive)	> 10 µM (inactive)		> 10 µM (inactive)	> 10 µM (inactive)	> 10 µM (inactive)
COC(=O)C1=CSC2(S1)C(C(=O)OC)=CSc1c2ss/c1=N\c1ccccc1 (stereo not drawn)	1.78 µM (inactive)	7.64 µM (inactive)	2.72 µM (inactive)	2.07 µM (inactive)	1.87 µM (inactive)	1.88 µM (inactive)	1.83 µM (inactive)	2.47 µM (inactive)	2.16 µM (inactive)		3.79 µM (inactive)	3.66 µM (inactive)	1.69 µM (inactive)	4.59 µM (inactive)	2.88 µM (inactive)	0.497 µM (active)		3.07 µM (inactive)	1.64 µM (inactive)
CC(=O)N1C(c2[nH]c3ccccc3c2-c2ccccc2)CCN1c1ccccc1 (stereo not drawn)	> 10 µM (inactive)	> 10 µM (inactive)	> 10 µM (inactive)	> 10 µM (inactive)	> 10 µM (inactive)	> 10 µM (inactive)	> 10 µM (inactive)	> 10 µM (inactive)	> 10 µM (inactive)	> 10 µM (inactive)	> 10 µM (inactive)	> 10 µM (inactive)	> 10 µM (inactive)	> 10 µM (inactive)	> 10 µM (inactive)	> 10 µM (inactive)		> 10 µM (inactive)	
Cc1cc(N(CCCl)CCCl)ccc1/C=N/NC(=O)Cc1cc(=O)oc2cc(O)ccc12	11.2 µM (inactive)	6.85 µM (inactive)		30.6 µM (inactive)	16.6 µM (inactive)	16 µM (inactive)	17.5 µM (inactive)	19.5 µM (inactive)	17.7 µM (inactive)	15.7 µM (inactive)	5.83 µM (inactive)	31.6 µM (inactive)	37.6 µM (inactive)	20.4 µM (inactive)	19 µM (inactive)	16 µM (inactive)	27 µM (inactive)	8.93 µM (inactive)	13.7 µM (inactive)
CCCCCCCCC/C=C1/CC(CO)(COC(=O)C2CCCCC2)OC1=O (stereo not drawn)	98.4 µM (inactive)	> 100 µM (inactive)	> 100 µM (inactive)	> 100 µM (inactive)	> 100 µM (inactive)	> 100 µM (inactive)	> 100 µM (inactive)	> 100 µM (inactive)	34 µM (inactive)	> 100 µM (inactive)	> 100 µM (inactive)	> 100 µM (inactive)	> 100 µM (inactive)	> 100 µM (inactive)	63.7 µM (inactive)		> 100 µM (inactive)	> 100 µM (inactive)	> 100 µM (inactive)
COc1cc(C2c3cc4c(cc3OC(NN)C2C)OCO4)cc(OC)c1O (stereo not drawn)	2.32 µM (inactive)	7.28 µM (inactive)		9.2 µM (inactive)	26.8 µM (inactive)	4.3 µM (inactive)	4.63 µM (inactive)	27 µM (inactive)	15.2 µM (inactive)	25.4 µM (inactive)	8.09 µM (inactive)	31.6 µM (inactive)	4.52 µM (inactive)			3.95 µM (inactive)	23.6 µM (inactive)		
O=C(CC(C(=O)c1cccs1)c1ccsc1)c1ccc(Cl)cc1 (stereo not drawn)	> 100 µM (inactive)	> 100 µM (inactive)	> 100 µM (inactive)	> 100 µM (inactive)	> 100 µM (inactive)	> 100 µM (inactive)	> 100 µM (inactive)	> 100 µM (inactive)	> 100 µM (inactive)	81.8 µM (inactive)	> 100 µM (inactive)	> 100 µM (inactive)	83.8 µM (inactive)	> 100 µM (inactive)	> 100 µM (inactive)	> 100 µM (inactive)		> 100 µM (inactive)	> 100 µM (inactive)
Clc1ccc(CNc2nc(Cl)c3nc[nH]c3n2)cc1Cl	32 µM (inactive)	6.71 µM (inactive)	20.6 µM (inactive)	30.8 µM (inactive)	35.4 µM (inactive)	21.6 µM (inactive)	15.9 µM (inactive)	22.4 µM (inactive)	22.6 µM (inactive)	21.9 µM (inactive)	18 µM (inactive)	> 100 µM (inactive)	15.8 µM (inactive)	25.2 µM (inactive)	27.4 µM (inactive)			28.2 µM (inactive)	11.1 µM (inactive)
O=c1[nH]nc(-c2ccccc2)c2[nH]c3c(c12)CCCc1ccccc1-3	13 µM (inactive)	8.97 µM (inactive)	52.2 µM (inactive)	15.9 µM (inactive)	12.9 µM (inactive)	16.6 µM (inactive)	13.2 µM (inactive)	52.2 µM (inactive)	9.79 µM (inactive)	16.1 µM (inactive)	19.6 µM (inactive)	18.7 µM (inactive)	12.4 µM (inactive)	10.6 µM (inactive)	19.3 µM (inactive)	11.5 µM (inactive)	13.3 µM (inactive)	16 µM (inactive)	
CC(=O)O[C@H]1C(=O)[C@@]2(C)[C@H]([C@H](OC(=O)c3ccccc3)[C@]3(O)C[C@H](OC(=O)[C@H](O)[C@@H](NC(=O)OC(C)(C)C)c4ccco4)C(C)=C1C3(C)C)[C@]1(OC(C)=O)CO[C@@H]1C[C@@H]2O	< 0.005 µM (active)	0.264 µM (active)	< 0.005 µM (active)	< 0.005 µM (active)	4.18 µM (inactive)	< 0.005 µM (active)	< 0.005 µM (active)	0.00966 µM (active)	< 0.005 µM (active)		< 0.005 µM (active)	0.00724 µM (active)	0.0185 µM (active)	14.7 µM (inactive)	0.00804 µM (active)	< 0.005 µM (active)	7.23 µM (inactive)	< 0.005 µM (active)	2.47 µM (inactive)
C#CCOCC12C=CC(O1)C1C(=O)OCC12 (stereo not drawn)	> 100 µM (inactive)	> 100 µM (inactive)	> 100 µM (inactive)	> 100 µM (inactive)	> 100 µM (inactive)	> 100 µM (inactive)	> 100 µM (inactive)	> 100 µM (inactive)	> 100 µM (inactive)	> 100 µM (inactive)	> 100 µM (inactive)	> 100 µM (inactive)	> 100 µM (inactive)	> 100 µM (inactive)	> 100 µM (inactive)	> 100 µM (inactive)		> 100 µM (inactive)	> 100 µM (inactive)
COc1c(O)cc2c(c1O)C1O[C@H](CO)C(O)[C@H](O)[C@H]1OC2=O (stereo partly drawn)	> 100 µM (inactive)	> 100 µM (inactive)	> 100 µM (inactive)	> 100 µM (inactive)	> 100 µM (inactive)	> 100 µM (inactive)	> 100 µM (inactive)	> 100 µM (inactive)	> 100 µM (inactive)	> 100 µM (inactive)	> 100 µM (inactive)	> 100 µM (inactive)	> 100 µM (inactive)		> 100 µM (inactive)	> 100 µM (inactive)	> 100 µM (inactive)	> 100 µM (inactive)	
